The target of one experiment is human P2X3 receptor (Homo sapiens (Human), UniProt P56373). Nature of the experiment: Intracellular calcium measurement (FLIPR, Fluo-4) of antagonist activity at human P2X3 receptors. In kind it is cell-based. As to conditions: human P2X3, FLIPR calcium assay, agonist α,β-Me-ATP; read-out: hP2X3 IC50. The method, then: (§1) Intracellular Calcium Measurement to Assess Antagonist Activity at Human P2X3 and Human P2X2/3 Receptors
(§2) A fluorescent imaging plate reader (FLEX/FLIPR station; Molecular Devices) was used to monitor intracellular calcium levels using the calcium-chelating dye Fluo-4 (Molecular Probes). […] Cells expressing purinergic receptors P2X3 (human) or P2X2/3 (human) were plated at a density of 15,000 cells/well in collagen-coated 384-well plates approximately 20 hours before beginning the assay. […] The test compound was added in a volume of 5 μl and allowed to incubate for 30 min at 37° C. The final assay DMSO concentration is 1%. The agonist, α,β-Me-ATP, was added in a volume of 20 μl at a concentration representing the EC80 value. The fluorescence was measured for an interval of 90 sec at 2 sec intervals and analyzed based on the increase in peak relative fluorescence units (RFU) compared to the basal fluorescence. Peak fluorescence was used to determine the response to agonist obtained at each concentration of test compound by the following equation: % Response=100*(RFU(test compound)−RFU(control)/RFU(DMSO)−RFU(control))
(§3) The Examples were tested in triplicates per plate and mean values were plotted in Excel XLFit to determine IC50 values at the human P2X3 and human P2X2/3 receptors, percentage of maximal inhibition and the Hill coefficients.
A general note: A change in cytosolic calcium serves as a functional read-out for many receptors and channels.

The target of the next experiment is human P2X2/3 receptor (Homo sapiens (Human), UniProt P56373+Q9UBL9). Nature of the experiment: Intracellular calcium measurement (FLIPR, Fluo-4) of antagonist activity at human P2X2/3 receptors. As to conditions: human P2X2/3, FLIPR calcium assay, agonist α,β-Me-ATP; read-out: hP2X2/3 IC50. In kind it is cell-based. The method, then:
as §1, §2, §3

Among the data in patent US10174016B2 (BAYER AKTIENGESELLSCHAFT, priority 2014, dated 2019) are IC50 values, retold here.

A value given as a limit tells only on which side of the number the result lay.

Sequence of human P2X3 receptor (P56373 whole entry): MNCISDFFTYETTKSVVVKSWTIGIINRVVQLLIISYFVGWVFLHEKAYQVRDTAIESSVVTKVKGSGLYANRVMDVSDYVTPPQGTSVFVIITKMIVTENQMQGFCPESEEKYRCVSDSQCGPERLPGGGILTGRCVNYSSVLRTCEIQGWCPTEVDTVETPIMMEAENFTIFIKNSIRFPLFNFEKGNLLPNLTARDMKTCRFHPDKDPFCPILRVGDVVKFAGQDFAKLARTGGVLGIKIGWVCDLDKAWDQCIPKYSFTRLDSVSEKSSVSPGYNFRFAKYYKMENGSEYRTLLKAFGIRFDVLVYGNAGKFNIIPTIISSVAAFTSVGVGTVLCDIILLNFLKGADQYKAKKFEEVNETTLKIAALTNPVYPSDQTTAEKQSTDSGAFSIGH
Sequence of human P2X2/3 receptor (P56373 whole entry): as above
Sequence of human P2X2/3 receptor (Q9UBL9 whole entry): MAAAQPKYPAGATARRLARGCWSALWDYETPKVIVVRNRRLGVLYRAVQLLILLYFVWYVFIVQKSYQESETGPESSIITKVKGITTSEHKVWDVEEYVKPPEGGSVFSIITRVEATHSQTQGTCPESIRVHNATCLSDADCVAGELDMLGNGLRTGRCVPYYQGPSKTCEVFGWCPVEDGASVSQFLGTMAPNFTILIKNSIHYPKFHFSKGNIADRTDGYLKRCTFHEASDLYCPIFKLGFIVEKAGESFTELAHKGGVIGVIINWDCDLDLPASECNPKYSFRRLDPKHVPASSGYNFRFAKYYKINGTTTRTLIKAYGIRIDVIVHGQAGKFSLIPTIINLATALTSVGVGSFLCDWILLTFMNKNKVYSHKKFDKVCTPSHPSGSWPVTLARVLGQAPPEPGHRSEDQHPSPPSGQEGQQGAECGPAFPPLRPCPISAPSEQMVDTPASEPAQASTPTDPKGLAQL

In the case of `Cc1cnc(-c2cc(OC3COC3)cc(C(=O)N[C@H](C)c3nnc(C)s3)c2)s1` [Example 50, N-[(1R)-1-(5-Methyl-1,3,4-thiadiazol-2-yl)ethyl]-3-(5-methyl-1,3-thiazol-2-yl)-5-(oxetan-3-yloxy)benzamide], the IC50 at human P2X3 receptor is 77 nM; on human P2X2/3 receptor, 982 nM.

`Cc1cnc(-c2cc(OC3CCOCC3)cc(C(=O)N[C@H](C)c3cnc(C(F)F)nc3)c2)s1` [Example 154, N-{(1R)-1-[2-(difluoromethyl)pyrimidin-5-yl]ethyl}-3-(5-methyl-1,3-thiazol-2-yl)-5-(tetrahydro-2H-pyran-4-yloxy)benzamide]: on human P2X2/3 receptor, the IC50 was 130 nM.

With `Cc1cnc(-c2cc(OC[C@H]3CNCCO3)cc(C(=O)N[C@@H](C)c3cnc(C(F)(F)F)nc3)c2)s1` [Example 413, 3-(5-methyl-1,3-thiazol-2-yl)-5-[(2R)-morpholin-2-ylmethoxy]-N-{(1S)-1-[2-(trifluoromethyl)pyrimidin-5-yl]ethyl}benzamide], the IC50 on human P2X3 receptor is 597 nM; at human P2X2/3 receptor, at least 10000 nM.

Take `Cc1cnc(-c2cc(OC[C@H]3COCCN3C)cc(C(=O)N[C@H](C)c3ccc(C(F)(F)F)nn3)c2)s1` [Example 388, 3-{[(3R)-4-methylmorpholin-3-yl]methoxy}-5-(5-methyl-1,3-thiazol-2-yl)-N-{(1R)-1-[6-(trifluoromethyl)pyridazin-3-yl]ethyl}benzamide]: the results for the IC50 at human P2X3 receptor and at human P2X2/3 receptor were 18 nM and 1350 nM, respectively.

As for `CC#CCOc1cc(C(=O)N[C@H](C)c2nnc(C)s2)cc(-c2ncc(C)s2)c1` [Example 41, 3-(But-2-yn-1-yloxy)-N-[(1R)-1-(5-methyl-1,3,4-thiadiazol-2-yl)ethyl]-5-(5-methyl-1,3-thiazol-2-yl)benzamide], the IC50 at human P2X3 receptor was 130 nM; on human P2X2/3 receptor it was 1590 nM.

As to `Cc1ccc([C@@H](C)NC(=O)c2cc(OC[C@H]3CCCO3)cc(-c3ncc(C)s3)c2)nn1` [Example 61, N-[(1R)-1-(6-methylpyridazin-3-yl)ethyl]-3-(5-methyl-1,3-thiazol-2-yl)-5-[(2R)-tetrahydrofuran-2-ylmethoxy]benzamide], the results for the IC50 at human P2X3 receptor and at human P2X2/3 receptor were 14 nM and 428 nM, respectively.

For `Cc1cnc(-c2cc(OCC3CC(F)CN3C)cc(C(=O)N[C@H](C)c3ccc(C(F)(F)F)nc3)c2)s1` (stereo partly drawn) [Example 365, 3-{[4-fluoro-1-methylpyrrolidin-2-yl]methoxy}-5-(5-methyl-1,3-thiazol-2-yl)-N-{(1R)-1-[6-(trifluoromethyl)pyridin-3-yl]ethyl}benzamide], the values for the IC50 at human P2X3 receptor and at human P2X2/3 receptor were 21 nM and 1050 nM, respectively.

Turning to `Cc1cnc(-c2cc(O[C@@H]3CCOC3)cc(C(=O)N[C@H](C)c3ccc(C(F)(F)F)nc3)c2)s1` [Example 157, 3-(5-methyl-1,3-thiazol-2-yl)-5-[(3R)-tetrahydrofuran-3-yloxy]-N-{(1R)-1-[6-(trifluoromethyl)pyridin-3-yl]ethyl}benzamide], the IC50 at human P2X3 receptor was found to be 17 nM; at human P2X2/3 receptor, 534 nM.

As for `Cc1cnc(-c2cc(OC3COC3)cc(C(=O)N[C@H](C)c3ccc(C(F)F)nc3)c2)s1` [Example 164], the figures for the IC50 at human P2X3 receptor and on human P2X2/3 receptor were 60 nM and 1110 nM, respectively.

On to `COC(=O)N1CC2(COc3cc(C(=O)N[C@H](C)c4cnc(C(F)(F)F)nc4)cc(-c4ncc(C)s4)c3)CC1CO2` (stereo partly drawn) [Example 409, Methyl 1-{[3-(5-methyl-1,3-thiazol-2-yl)-5-({(1R)-1-[2-(trifluoromethyl)pyrimidin-5-yl]ethyl}carbamoyl)phenoxy]methyl}-2-oxa-5-azabicyclo[2.2.1]heptane-5-carboxylate], for which the IC50 on human P2X3 receptor came out at 22 nM; at human P2X2/3 receptor, 976 nM.

As to `Cc1cc(Oc2cc(C(=O)N[C@H](C)c3ccc(C(F)(F)F)nn3)cc(-c3ncc(C)s3)c2)ccn1` [Example 105, 3-[(2-Methylpyridin-4-yl)oxy]-5-(5-methyl-1,3-thiazol-2-yl)-N-{(1R)-1-[6-(trifluoromethyl)pyridazin-3-yl]ethyl}benzamide], on human P2X2/3 receptor, the IC50 was determined as 39 nM.

For `Cc1cnc(-c2cc(OC3(C)COC3)cc(C(=O)N[C@H](C)c3cnc(C(F)(F)F)nc3)c2)s1` [Example 156, 3-[(3-methyloxetan-3-yl)oxy]-5-(5-methyl-1,3-thiazol-2-yl)-N-{(1R)-1-[2-(trifluoromethyl)pyrimidin-5-yl]ethyl}benzamide], the IC50 at human P2X2/3 receptor turned out to be 163 nM.

For `Cc1cnc(-c2cc(OC3CCOCC3)cc(C(=O)N[C@H](C)c3ccc(C(F)(F)F)nn3)c2)s1` [Example 89, 3-(5-Methyl-1,3-thiazol-2-yl)-5-(tetrahydro-2H-pyran-4-yloxy)-N-{(1R)-1-[6-(trifluoromethyl)pyridazin-3-yl]ethyl}benzamide], at human P2X2/3 receptor, the IC50 turned out to be 199 nM.

`Cc1cnc(-c2cc(OCC34CNC(CO3)C4)cc(C(=O)N[C@H](C)c3cnc(C(F)(F)F)nc3)c2)s1` (stereo partly drawn) [Example 407, 3-(5-Methyl-1,3-thiazol-2-yl)-5-[2-oxa-5-azabicyclo[2.2.1]hept-1-ylmethoxy]-N-{(1R)-1-[2-(trifluoromethyl)pyrimidin-5-yl]ethyl}benzamide]: on human P2X3 receptor, the IC50 came to 15 nM.

Take `Cc1cnc(-c2cc(OCCn3cncn3)cc(C(=O)N[C@H](C)c3cnc(C(F)(F)F)nc3)c2)s1` [Example 159, 3-(5-methyl-1,3-thiazol-2-yl)-5-[2-(1H-1,2,4-triazol-1-yl)ethoxy]-N-{(1R)-1-[2-(trifluoromethyl)pyrimidin-5-yl]ethyl}benzamide]: the IC50 at human P2X2/3 receptor came to 1230 nM.

On to `Cc1cnc(-c2cc(OC[C@H]3COCCO3)cc(C(=O)N[C@H](C)c3ccc(C(F)(F)F)nc3)c2)s1` [Example 177, 3-[(2R)-1,4-dioxan-2-ylmethoxy]-5-(5-methyl-1,3-thiazol-2-yl)-N-{(1R)-1-[6-(trifluoromethyl)pyridin-3-yl]ethyl}benzamide], for which the IC50 on human P2X2/3 receptor turned out to be 887 nM.

In the case of `Cc1ccc([C@@H](C)NC(=O)c2cc(OC3COC3)cc(-c3ncc(C)s3)c2)cn1` [Example 51, N-[(1R)-1-(6-methylpyridin-3-yl)ethyl]-3-(5-methyl-1,3-thiazol-2-yl)-5-(oxetan-3-yloxy)benzamide], the IC50 at human P2X2/3 receptor worked out at 1390 nM.

On to `Cc1cnc(-c2cc(OC3CCNCC3)cc(C(=O)N[C@H](C)c3cnc(C(F)(F)F)nc3)c2)s1` [Example 138, 3-(5-Methyl-1,3-thiazol-2-yl)-5-(piperidin-4-yloxy)-N-{(1R)-1-[2-(trifluoromethyl)pyrimidin-5-yl]ethyl}benzamide], for which, on human P2X2/3 receptor, the IC50 is 559 nM.

On to `C#CCOc1cc(C(=O)N[C@H](C)c2ccc(C)nn2)cc(-c2ncc(C)s2)c1` [Example 37, N-[(1R)-1-(6-Methylpyridazin-3-yl)ethyl]-3-(5-methyl-1,3-thiazol-2-yl)-5-(prop-2-yn-1-yloxy)benzamide], for which the IC50 at human P2X2/3 receptor worked out at 1180 nM.

In the case of `C#CCOc1cc(C(=O)NCc2ncc(Cl)cc2F)cc(-c2ncc(C)s2)c1` [Example 32, N-[(5-Chloro-3-fluoropyridin-2-yl)methyl]-3-(5-methyl-1,3-thiazol-2-yl)-5-(prop-2-yn-1-yloxy)benzamide], the IC50 at human P2X3 receptor was found to be 24 nM.

In the case of `Cc1ccc(CNC(=O)c2cc(OC[C@@H]3CCCO3)cc(-c3ncc(C)s3)c2)nn1` [Example 54, N-[(6-Methylpyridazin-3-yl)methyl]-3-(5-methyl-1,3-thiazol-2-yl)-5-[(2S)-tetrahydrofuran-2-ylmethoxy]benzamide], the IC50 on human P2X2/3 receptor is at least 10000 nM.
